Data: ChEMBL document CHEMBL1153745, “The Caulerpa pigment caulerpin inhibits HIF-1 activation and mitochondrial respiration” (J Nat Prod, 2009)
Calls of active or inactive are those of the source. No cut-off for these calls is given here.

What was measured:
T47D [1] = assay: Inhibition of hypoxia-induced nuclear HIF1alpha accumulation in human T47D cells at 10 uM after 4 hrs by Western blot analysis; assay type: functional, cell-based
T47D [2] = assay: Inhibition of hypoxia-induced secreted VEGF protein level in human T47D cells at 10 uM after 16 hrs by ELISA; assay type: functional, cell-based
T47D [3] = assay: Inhibition of electron transport protein complex 3 in human T47D cells assessed as decrease in oxygen consumption at 30 uM pretreated for 2 hrs before succinate addition by mitochondrial respiration assay; assay type: cell-based
T47D [4] = assay: Effect on luciferase expression in hypoxia-stimulated human T47D cells expressing pGL3 construct at 30 uM after 16 hrs by reporter gene assay; assay type: functional
T47D [5] = assay: Inhibition of electron transport protein complex 1 in digitonin-permeabilized human T47D cells assessed as decrease in oxygen consumption at 30 uM by mitochondrial respiration assay; assay type: cell-based
HUVEC [6] = assay: Antiangiogenic activity in human HUVEC cells assessed as decrease in tube length up to 30 uM after 18 hrs by Matrigel based tube formation assay; assay type: functional, cell-based
T47D [7] = assay: Cytotoxicity against human T47D cells under hypoxic conditions at 30 uM after 16 hrs; assay type: cell-based
[8] = Growth inhibition of human HMEC cells up to 30 uM after 48 hrs by sulforhodamine B assay; assay type: cell-based; settings: read-out: GI
T47D [9] = assay: Inhibition of hypoxia-induced GLUT1 mRNA expression in human T47D cells at 30 uM after 16 hrs by RT-PCR; assay type: functional, cell-based
PC-3 = assay: Growth inhibition of human PC3 cells at 30 uM after 48 hrs by sulforhodamine B assay; assay type: functional; settings: PC-3, 48 h, read-out: GI
T47D [10] = assay: Inhibition of electron transport protein complex 1 in human T47D cells assessed as reduction of oxygen consumption at 30 uM pretreated for 2 hrs relative to untreated control; assay type: cell-based
MDA-MB-231 [11] = assay: Inhibition of cell migration in human MDA-MB-231 cells under hypoxic conditions after 22 hrs by wound-healing assay; assay type: functional, cell-based
HUVEC [12] = assay: Antiangiogenic activity in human HUVEC cells assessed as inhibition of hypoxic T47D cell-conditioned media-induced tube formation at 30 uM after 18 hrs by Matrigel based tube formation assay; assay type: functional
T47D [13] = assay: Growth inhibition of human T47D cells at 1 uM to 30 uM after 48 hrs by sulforhodamine B assay; assay type: functional, cell-based
HUVEC [14] = assay: Antiangiogenic activity in human HUVEC cells assessed as decrease in branch point number up to 30 uM after 18 hrs by Matrigel based tube formation assay; assay type: functional, cell-based
T47D [15] = assay: Inhibition of cellular respiration in human T47D cells assessed as oxygen consumption; assay type: functional, cell-based
HUVEC [16] = assay: Antiangiogenic activity in human HUVEC cells assessed as inhibition of normoxic T47D cell-conditioned media-induced tube formation at 30 uM after 18 hrs by Matrigel based tube formation assay; assay type: functional
T47D [17] = assay: Inhibition of 1,10-phenanthroline-induced GLUT1 mRNA expression in human T47D cells at 30 uM after 16 hrs by RT-PCR; assay type: functional, cell-based
T47D [18] = assay: Inhibition of electron transport protein complex 4 in human T47D cells assessed as decrease in oxygen consumption at 30 uM pretreated for 2 hrs before TMPD/ascorbate addition by mitochondrial respiration assay; assay type: cell-based
T47D [19] = assay: Inhibition of hypoxia-induced nuclear HIF1beta accumulation in human T47D cells at 10 uM after 4 hrs by Western blot analysis; assay type: functional, cell-based
MDA-MB-231 [20] = assay: Growth inhibition of human MDA-MB-231 cells at 1 uM to 30 uM after 48 hrs by sulforhodamine B assay; assay type: functional, cell-based
T47D [21] = assay: Inhibition of hypoxia-induced VEGF mRNA expression in human T47D cells at 30 uM after 16 hrs by RT-PCR; assay type: functional, cell-based
DU-145 = assay: Growth inhibition of human DU145 cells at 1 uM to 30 uM after 48 hrs by sulforhodamine B assay; assay type: functional, cell-based
T47D [22] = assay: Inhibition of electron transport protein complex 1 in human T47D cells assessed as reduction of oxygen consumption at 30 uM; assay type: cell-based
T47D [23] = assay: Inhibition of electron transport protein complex 1 in human T47D cells assessed as reduction of oxygen consumption at 10 uM; assay type: cell-based
MCF7 = assay: Growth inhibition of human MCF7 cells at 1 uM to 30 uM after 48 hrs by sulforhodamine B assay; assay type: functional, cell-based
T47D [24] = assay: Inhibition of secreted VEGF protein level in human T47D cells under normoxic conditions at 10 uM after 16 hrs by ELISA; assay type: functional, cell-based
T47D [25] = assay: Inhibition of electron transport protein complex 1 in digitonin-induced permeable human T47D cells assessed as reduction of oxygen consumption at 30 uM relative to control; assay type: cell-based
MDA-MB-231 [26] = assay: Cytotoxicity against human MDA-MB-231 cells under hypoxic conditions up to 30 uM after 22 hrs by neutral red method; assay type: cell-based; settings: mda-mb-231, 22 h
[27] = target: T1, Hypoxia inducible factors; HIF-1-alpha, HIF-2-alpha (Homo sapiens) (UniProt Q16665+Q99814); assay: Inhibition of hypoxia-induced HIF1 activation in human T47D cells at 1 uM after 16 hrs by pTK-HRE3-luciferase reporter gene assay; assay type: cell-based
T47D [28] = assay: Inhibition of 1,10-phenanthroline-induced VEGF mRNA expression in human T47D cells at 30 uM after 16 hrs by RT-PCR; assay type: functional, cell-based
MDA-MB-231 [29] = assay: Cytotoxicity against human MDA-MB-231 cells up to 30 uM after 22 hrs by neutral red method; assay type: cell-based; settings: mda-mb-231, 22 h
T47D [30] = assay: Inhibition of hypoxia-induced GLUT1 mRNA expression in human T47D cells at 10 uM after 16 hrs by RT-PCR; assay type: functional, cell-based
T47D [31] = assay: Inhibition of hypoxia-induced VEGF mRNA expression in human T47D cells at 10 uM after 16 hrs by RT-PCR; assay type: functional, cell-based
HUVEC [32] = assay: Antiangiogenic activity in human HUVEC cells assessed as inhibition of hypoxic T47D cell-conditioned media-induced tube formation at 10 uM after 18 hrs by Matrigel based tube formation assay; assay type: functional
MDA-MB-231 [33] = assay: Inhibition of cell migration in human MDA-MB-231 cells under normoxic conditions after 22 hrs by wound-healing assay; assay type: functional, cell-based
T47D [34] = assay: Inhibition of electron transport protein complex 1 in human T47D cells assessed as decrease in oxygen consumption at 30 uM pretreated for 2 hrs before malate and pyruvate addition by mitochondrial respiration assay; assay type: cell-based
T47D [35] = assay: Inhibition of 1,10-phenanthroline-induced nuclear HIF1alpha accumulation in human T47D cells at 10 uM after 4 hrs by Western blot analysis; assay type: functional, cell-based
T47D [36] = assay: Inhibition of electron transport protein complex 2 in human T47D cells assessed as decrease in oxygen consumption at 30 uM pretreated for 2 hrs before succinate addition by mitochondrial respiration assay; assay type: cell-based
[37] = target: T1, Hypoxia inducible factors; HIF-1-alpha, HIF-2-alpha (Homo sapiens); assay: Inhibition of 1,10-phenanthroline-induced HIF1 activation in human T47D cells at 1 uM after 16 hrs by pTK-HRE3-luciferase reporter gene assay; assay type: cell-based
[38] = target: T1, Hypoxia inducible factors; HIF-1-alpha, HIF-2-alpha (Homo sapiens); assay: Inhibition of 1,10-phenanthroline-induced HIF1 activation in human T47D cells after 16 hrs by pTK-HRE3-luciferase reporter gene assay; assay type: cell-based

Activity [27]: Active | Activity [37]: Active | Activity [38]: Dose-dependent effect
Structure (SMILES): COC(=O)/C1=C/c2c([nH]c3ccccc23)/C(C(=O)OC)=C\c2c1[nH]c1ccccc21 [CAULERPIN]
Activity (T47D [1]): Active | Activity (T47D [2]): Active | Activity (T47D [3]): inactive | Activity (T47D [4]): <=10% | Activity (T47D [5]): Active | Activity (HUVEC [6]): Active | Activity (T47D [7]): <= 10% | inhibition at 48 h [8]: < 25% | Activity (T47D [9]): Active | inhibition of growth at 30 µM (PC-3): 52% | inhibition (T47D [10]): 87% | Activity (MDA-MB-231 [11]): Dose-dependent effect | Activity (HUVEC [12]): Active | Activity (T47D [13]): Active | Activity (HUVEC [14]): Active | Activity (T47D [15]): Dose-dependent effect | Activity (HUVEC [16]): inactive | Activity (T47D [17]): inactive | Activity (T47D [18]): inactive | Activity (T47D [19]): inactive | Activity (MDA-MB-231 [20]): Active | Activity (T47D [21]): Active | Activity (DU-145): inactive | inhibition (T47D [22]): 30% | Activity (T47D [23]): inactive | Activity (MCF7): Active | Activity (T47D [24]): inactive | inhibition (T47D [25]): 57% | Activity (MDA-MB-231 [26]): 15% | Activity (T47D [28]): inactive | Activity (MDA-MB-231 [29]): 15% | Activity (T47D [30]): inactive | Activity (T47D [31]): inactive | Activity (HUVEC [32]): Active | Activity (MDA-MB-231 [33]): Dose-dependent effect | Activity (T47D [34]): Active | Activity (T47D [35]): inactive | Activity (T47D [36]): inactive
